{
  "source": "patent US20250154212A1",
  "about": "“METHOD OF DISRUPTING MEMORY AND LIPOPEPTIDE FOR USE IN SUCH METHOD” (The Research Foundation for The State University of New York, priority 2023, published 2025)",
  "key": {"[1]": {"test_system": "auditory-cued fear/threat memory", "test": "Auditory-cued fear/threat conditioning, infusion into basolateral amygdala, wild-type mice", "type": "in vivo, mouse", "conditions": "6 nmol in 0.3 μL into each BLA, tested 1 day post-injection", "procedure": "Mice were 8-10 weeks old at the time of cannulation and 9-11 weeks old at the beginning of behavioral experiments. Mice were housed with cage-mates in plastic cages and provided with food and water ad libitum. Mice were maintained on a 12 h light/dark cycle (lights on at 7:00 am) and behavioral experiments began at 9:00 am.\nMice were injected intraperitoneally (1 ml/100 g body weight) with an anesthetic cocktail containing ketamine (10 mg/ml) and xylazine (2 mg/ml). Mice were provided with analgesic treatment prior to surgery (carprofen; 5 mg/ml). Guide cannulae (Plastics One, Roanoke, VA) were implanted bilaterally in the basolateral amygdala (from bregma: AP-1.7 mm; L+/−3.0 mm; DV-4.4 mm) and secured to the skull with three jeweler's screws and dental cement. Antisedan (0.66 ml/100 g body weight of 0.5 mg drug/ml solution) was given via i.p. injection after surgery to reverse the anesthesia.\nFor 7 days following surgery, mice were handled by freely exploring the experimenter's palm for 2-5 min. Mice were habituated, trained, and tested in the same conditioning box (Coulbourn Habitest, Coulboum Instruments) with differing floors and walls to produce two different contexts (Context A and Context B). […] Freezing behavior (cessation of all movement except breathing) during the tone on Test 1 and Test 2 was scored by an experimenter blind to the conditions. […]"}, "[2]": {"test_system": "KIBRA with conventional PKCs (PKCα, PKCβI, PKCβII, PKCγ)", "test": "BiFC assay of KIBRA with conventional PKCs in HEK293T cells", "type": "cell-based, human", "conditions": "10 μM", "procedure": "KIBRA-PKMζ BiFC was performed as previously described (28), using pVen1-FLAG-KIBRA and pVen2-HA-PKMζ, in which PKMζ was cloned between EcoR1 and BamH1 sites. The constructs pVen1 and pVen2 encode the N-terminus (amino acids 1-154) and C-terminus (amino acids 155-238) of the Venus protein, respectively, and the Venus fragments were on the N-terminal of the fusion proteins. pVen2-HA-PKMζ[PKCι/λ-P291Q;F297S] was generated by site-directed mutagenesis using forward-cctggagAagcAAatceggatcccccggtCcctgtccgte and reverse-gacggacaggGaccgggggatccggatTTgctTctccagg primers and the QuickChange II XL Site-Directed Mutagenesis Kit (Agilent Technologies), following manufacturer's instructions. Additional pVen2-HA-PKC isoforms and pVen2-HA-CaMKIIα in the pVen2-HA vector were generated by cloning the N-terminus of the coding sequence of each kinase (table S1) to obtain an in-frame fusion at the C-terminus of the pVen2-HA. Human versions of KIBRA and kinases were used, and all PCR amplified sequences and constructs were verified by DNA sequencing.\nHEK293T cells were cultured in Dulbecco's Modified Eagle's Medium supplemented with 10% heat-inactivated fetal bovine serum, 100 U/ml penicillin, […] streptomycin, 2 mM glutamine, and 10 mM HEPES in a T75 tissue culture flask with canted neck and ventilated cap. […]"}},
  "data": [
    {"smiles": "O=S(=O)(O)c1cc(O)c2c(S(=O)(=O)O)cc(S(=O)(=O)O)cc2c1", "note": "[ζ-stat, 1-naphthol-3,6,8-trisulphonic acid]", "values": [
      {"measurement": "auditory-cued fear/threat memory retention (% time freezing to tone)", "setting": "[1]", "value": "impairs memory retention"},
      {"measurement": "auditory-cued fear/threat memory retention (% time freezing to tone)", "setting": "[1]; listed as z-stat", "value": "disrupts fear/threat memory retention"},
      {"measurement": "effect on BiFC of KIBRA with conventional PKCs", "setting": "[2]", "value": "has no effect"}
    ]}
  ]
}
